Results reported in ChEMBL document CHEMBL1201862, “PubChem BioAssay data set” (2004).
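Each compound was tested at five concentrations against cells in 96-well plates for 48 hours. Abbreviation: GI50, concentration required for 50% inhibition of growth.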 Calls of active or inactive are those of the source. Rule as the data show it: active = GI50 up to about 1.1 µM and inactive = higher.

Tests used:
Assay in all cases: inhibition of tumour cell growth, NCI panel, 48 h
[1] = system: HOP-18
[2] = system: LXFL 529
[3] = system: DMS-114
[4] = system: XF498
[5] = system: DMS-273
[6] = system: KM-20L2
[7] = system: DLD-1
[8] = system: RXF 631
[9] = system: M19-MEL

Row | SMILES | GI50 [1] | GI50 [2] | GI50 [3] | GI50 [4] | GI50 [5] | GI50 [6] | GI50 [7] | GI50 [8] | GI50 [9]
1 | COc1cc(-c2ccc(Nc3ccccc3C(=O)O)c(OC)c2)ccc1Nc1ccccc1C(=O)O | > 100 µM (inactive) | 1.68 µM (inactive) | 25.4 µM (inactive) | > 40.1 µM (inactive) | 1.81 µM (inactive) | > 56 µM (inactive) | > 28 µM (inactive) |  | 
2 | CN(C(=O)C12C3C4C5C3C1(C(=O)O)C5C42)C(C)(C)C (stereo not drawn) | > 100 µM (inactive) | 74.8 µM (inactive) | 28.9 µM (inactive) | > 100 µM (inactive) | 16.5 µM (inactive) | > 100 µM (inactive) | 23.7 µM (inactive) | > 100 µM (inactive) | > 100 µM (inactive)
3 | O=c1c(-c2ccccc2)c2oc(c1-c1ccccc1)CSCc1cccc(c1)CSC2 | 27.8 µM (inactive) | 39 µM (inactive) | 36.9 µM (inactive) |  | 39.5 µM (inactive) | 67.9 µM (inactive) | 54.7 µM (inactive) |  | 45.9 µM (inactive)
4 | Cn1c2ccccc2c(=O)c2c(O)cc3c(c21)CC(C1(C)CO1)O3 (stereo not drawn) | 32.3 µM (inactive) | 0.229 µM (active) | 2.13 µM (inactive) | 1.88 µM (inactive) | 21.9 µM (inactive) | 4.66 µM (inactive) | 3.64 µM (inactive) | 3.61 µM (inactive) | 
5 | CCOC(=O)[C@H]1Nc2ccc(O)cc2C2c3ccccc3CC21 (stereo partly drawn) | > 100 µM (inactive) | 42.6 µM (inactive) | 56.2 µM (inactive) |  | 59.2 µM (inactive) | > 100 µM (inactive) | 70.8 µM (inactive) | > 100 µM (inactive) | 55.1 µM (inactive)
6 | COc1cccc(C2C(C(=O)Nc3cc(=O)n(C)c(=O)n3C)=C(C)NC(C)=C2C(=O)Nc2cc(=O)n(C)c(=O)n2C)c1O |  | > 100 µM (inactive) | > 100 µM (inactive) | > 100 µM (inactive) |  | > 100 µM (inactive) | > 100 µM (inactive) | > 100 µM (inactive) | > 100 µM (inactive)
7 | Cc1ccc(S(=O)(=O)C2CC2(Cl)Cl)cc1 (stereo not drawn) |  | 18.9 µM (inactive) | 19.7 µM (inactive) | 21.2 µM (inactive) | 32.5 µM (inactive) | > 100 µM (inactive) | 24.2 µM (inactive) | 20.9 µM (inactive) | 25.1 µM (inactive)
8 | CCOc1ccc(NC(=O)CC2C(=O)Nc3ccccc3[S+]2[O-])cc1 (stereo not drawn) | > 100 µM (inactive) | > 80 µM (inactive) |  | 38.8 µM (inactive) | > 67.1 µM (inactive) | > 46.5 µM (inactive) | > 100 µM (inactive) | > 84.9 µM (inactive) | > 100 µM (inactive)
9 | NC1=NCC(c2ccccn2)C1c1ccc(F)cc1 (stereo not drawn) | > 100 µM (inactive) | > 100 µM (inactive) | > 100 µM (inactive) | > 100 µM (inactive) |  | > 100 µM (inactive) | > 100 µM (inactive) | > 100 µM (inactive) | > 100 µM (inactive)
10 | N#CC1=C(c2ccccc2)OC2(N)OC(c3ccccc3)=C(C#N)C12C#N (stereo not drawn) | 21.6 µM (inactive) | 74 µM (inactive) | 51.5 µM (inactive) | > 100 µM (inactive) | > 100 µM (inactive) | > 100 µM (inactive) | > 100 µM (inactive) | > 100 µM (inactive) | > 100 µM (inactive)
11 | C[Si](C)(c1ccccc1)C1CC(=O)CC(=O)C1 | > 100 µM (inactive) | > 100 µM (inactive) | > 100 µM (inactive) | > 100 µM (inactive) | > 100 µM (inactive) | > 100 µM (inactive) | > 100 µM (inactive) |  | > 100 µM (inactive)
12 | C[C@]12CCNC(=O)C=C1CC[C@@H]1C2CC[C@@]2(C)C1CC[C@@H]2OC(=O)COc1ccc(N(CCCl)CCCl)cc1 (stereo partly drawn) | 18.8 µM (inactive) | 7.57 µM (inactive) |  | 1.35 µM (inactive) | 0.638 µM (active) | 14.4 µM (inactive) | 4.56 µM (inactive) | 4.71 µM (inactive) | 4.91 µM (inactive)
13 | COc1nc2c(c(O)c(C)c(=O)n2OC2OCC(OC(C)=O)C(OC(C)=O)C2OC(C)=O)c(=O)n1C (stereo not drawn) |  | > 100 µM (inactive) | > 100 µM (inactive) | > 100 µM (inactive) | > 100 µM (inactive) | > 100 µM (inactive) | > 100 µM (inactive) |  | > 100 µM (inactive)
14 | C[N+](C)(C)CC(=O)N/N=C(/C=C/c1ccccc1)CC1OC(=O)c2ccccc21 (stereo not drawn) | > 100 µM (inactive) | > 100 µM (inactive) | > 100 µM (inactive) | > 100 µM (inactive) | > 100 µM (inactive) | > 100 µM (inactive) | > 100 µM (inactive) |  | > 100 µM (inactive)
15 | O=c1[nH]cc(F)c(=O)n1C1OC(CO)C(O)C1O (stereo not drawn) | > 100 µM (inactive) | > 100 µM (inactive) | > 100 µM (inactive) | > 100 µM (inactive) | > 100 µM (inactive) | > 100 µM (inactive) | > 100 µM (inactive) |  | 
16 | CCOc1ccc2c(c1)[n+]([O-])c(C(N)=O)c(N)[n+]2[O-] | > 100 µM (inactive) | > 100 µM (inactive) | > 100 µM (inactive) | > 100 µM (inactive) | > 100 µM (inactive) | > 100 µM (inactive) | > 100 µM (inactive) |  | > 100 µM (inactive)
17 | O=C(O)/C(Cl)=C(\Cl)Nc1cccc(C(F)(F)F)c1 | > 100 µM (inactive) | > 100 µM (inactive) | > 100 µM (inactive) | > 100 µM (inactive) | > 100 µM (inactive) | > 100 µM (inactive) | > 100 µM (inactive) |  | > 100 µM (inactive)
18 | Cc1cc2c(C(C)C)c(O)c(O)c(/C=N\CCO)c2c(O)c1-c1c(C)cc2c(C(C)C)c(O)c(O)c(/C=N/CCO)c2c1O | 1.91 µM (inactive) | 1.64 µM (inactive) | 1.23 µM (inactive) | 2.87 µM (inactive) | 1.62 µM (inactive) |  | 3.33 µM (inactive) | 2.33 µM (inactive) | 1.86 µM (inactive)
19 | C[C@@H]1OC(=O)N2CCCC(=C3SCCCS3)C12 (stereo partly drawn) | 52.5 µM (inactive) | 44.8 µM (inactive) | 25.1 µM (inactive) | 36.6 µM (inactive) | 97.7 µM (inactive) | 93.8 µM (inactive) |  |  | 45.6 µM (inactive)
20 | O=[N+]([O-])c1ccc(C2CC(c3ccccc3Cl)=Nc3ccccc3[S+]2[O-])cc1 (stereo not drawn) | 14.1 µM (inactive) | 1.79 µM (inactive) | 2.05 µM (inactive) | 5.89 µM (inactive) | 2.95 µM (inactive) | 2.59 µM (inactive) | 2.06 µM (inactive) | 5.27 µM (inactive) | 2.77 µM (inactive)
21 | COC(=O)CCC(=O)CC(=O)C(=O)Nc1c(Cl)cc([N+](=O)[O-])cc1Cl | > 100 µM (inactive) | > 100 µM (inactive) | 23.5 µM (inactive) | > 100 µM (inactive) | > 100 µM (inactive) | > 100 µM (inactive) | 65.6 µM (inactive) | > 100 µM (inactive) | > 100 µM (inactive)
22 | O=C1C(N2C(=O)c3ccccc3C2=O)CN1C(COCc1ccccc1)c1ccc(OCc2ccccc2)cc1 (stereo not drawn) |  | > 100 µM (inactive) | > 100 µM (inactive) | > 100 µM (inactive) | > 100 µM (inactive) | > 100 µM (inactive) | > 100 µM (inactive) |  | > 100 µM (inactive)
